From patent US7696238B2, “Substituted benzo[d]isoxazol-3-yl amine compounds as analgesics” (Gruenenthal GmbH, priority 2005, dated 2010)

Biological target: T1, KCNQ2/3 ion channel (KCNQ2/3-expressing CHO-K1 cells) (Homo sapiens, UniProt O43525+O43526)
T1 construct: expressed in transfected cells; host or cells: CHO-K1
Assay: Fluorescence assay (FLIPR instrument, membrane potential dye) for substances acting agonistically on the KCNQ2/3 ion channel
Type: cell-based
Conditions: difference between maximum and minimum values, agonistic action detected from a value of −40 (and below)
Experimental: Pharmacological Test Methods I. Fluorescence Assay (FLIPR™ Instrument) for the Identification of Substances Acting Agonistically on the KCNQ2/3 Ion Channel
On the day before the experiment, KCNQ2/3-expressing CHO-K1 cells and CHO-K1 empty strain cells were seeded out onto coated poly-D-lysine black/clear plates (Falcon/BD Company; Order No.: 356640) in a concentration of 20000 cells/100 μl MEM alpha, 50 ml FCS, 5.5 ml PIS/G/solution (100×) and then incubated for 20-24 hours in an incubator (37° C., 5% CO2). On the day of the experiment the HBSS/hepes working solution and the FMP/HBSS/hepes mixture (Membrane Potential Assay Kit Red (FMP), bulk format Cat. No. R8123) were initially prepared according to the following protocol:
• 1000 ml 1× HBSS buffer (Hank's Balanced Salt Solution (1×) (Gibco; No. 14025)+10 ml hepes (1M stock solution, pH 7.4; hepes Na salt (Sigma Company; No. H7006-500 g; storage at 4° C. in a refrigerator) 2. 1× FMP/HBSS/hepes working solution: • 6 ml HBSS/hepes buffer are added to 5 ml of the FMP solution stored at −20° C. (preparation see below; thawing out at room temperature). The test substances (2 mM batch solution in 100% DMSO) contained in drug plates (Costar 96-well plates, catalogue No. 3795) were then diluted by adding HBSS/hepes buffer to a concentration of 30 μM (3× concentrated). The assay plates on which the cells grow were washed once with 200 μl HBSS/hepes (Cellwash Washer, Labsystems Company, catalogue No. 5161550) and the remaining volume was removed by tapping out the inverted plate twice. 100 μl of the FMP/HBSS/hepes working solution were then added in each case to the cell plates and incubated for 1 hour in the CO2 incubator at 37° C. and 5% CO2. The measurements are then carried out with a FLIPR III instrument from the Molecular Devices company (96-format, using the 540-590 nm band-pass filter in the #2 localization). In the experimental setup of the FLIPR software, filter #2 should be selected. The cell plates and the substance plates were fed alternately into the input stack. A signal test was carried out in each case with the cell plates before adding the substance. The test substances were then added via the pipetting unit of the FLIPR (added volume 50 μl, 3× concentrated, end concentration 10 μM) to the cavities of the cell plates in a total volume of 150 μl/well. The threshold data of the FLIPR program were as follows:
The pipette tips were washed after each pipetting procedure 3 times with 1% DMSO in water. The times of the measurement intervals after addition of the test substances are as follows:
Total measurement time: 6 min/plate
The test samples were evaluated by calculating the difference between the maximum and minimum values. EC50/IC50 values are calculated using the Graph Pad Prism software.
Preparation of the membrane potential loading buffer (membrane potential assay kit red (FMP), bulk format cat. No. R8123) according to the manufacturer's instructions:
10 ml of the 10× assay buffer (component B) were diluted with 90 ml of sterile water and then adjusted to pH 7.4 with 1.0N NaOH (1× assay buffer). One vessel with the FLIPR membrane potential assay component A was completely dissolved in 100 ml 1× assay buffer and thoroughly mixed for 10 minutes with a magnetic stirrer. 5 ml aliquots were then stored at −20° C. (storage shelf life ca. 2 weeks).
An agonistic action can be detected starting from a value of −40 (and below).

Compound	FLIPR membrane potential fluorescence change (ΔF %, max minus min); negative values indicate KCNQ2/3 agonism [%]
S=C(Nc1noc2ccccc12)NC1CCCCC1 [Example 23, 1-benzo[d]isoxazol-3-yl-3-cyclohexyl-thiourea]	−40
CCOc1ccc(NC(=S)Nc2noc3ccccc23)cc1 [Example 31, 1-benzo[d]isoxazol-3-yl-3-(4-ethoxyphenyl)-thiourea]	−49
COC(=O)C(C)NC(=S)Nc1noc2cccc(F)c12 (stereo not drawn) [Example 50, 2-[3-(4-fluoro-benzo[d]isoxazol-3-yl)-thioureido]-propionic acid methyl ester]	−59.5
Cc1ccccc1NC(=S)Nc1noc2cccc(Cl)c12 [Example 51, 1-(4-chlorobenzo[d]isoxazol-3-yl)-3-o-tolyl-thiourea]	−50
S=C(NCc1ccccc1)Nc1noc2cccc(Cl)c12 [Example 52, 1-benzyl-3-(4-chloro-benzo[d]isoxazol-3-yl)-thiourea]	−67.5
CC(NC(=S)Nc1noc2cccc(Cl)c12)c1ccccc1 (stereo not drawn) [Example 53, 1-(4-chlorobenzo[d]isoxazol-3-yl)-3-(1-phenyl-ethyl)-thiourea]	−42.5
CC(C)CNC(=S)Nc1noc2cccc(N(C)C)c12 [Example 54, 1-(4-dimethylamino-benzo[d]isoxazol-3-yl)-3-isobutyl-thiourea]	−64
Cc1ccc(NC(=S)Nc2noc3cccc(N(C)C)c23)cc1 [Example 55, 1-(4-dimethylamino-benzo[d]-isoxazol-yl)-3-p-tolyl-thiourea]	−84
CN(C)c1cccc2onc(NC(=S)Nc3cccc(Cl)c3)c12 [Example 56, 1-(3-chlorophenyl)-3-(4-dimethylaminobenzo[d]isoxazol-3-yl)-thiourea]	−55
Cc1cc(C)cc(NC(=S)Nc2noc3cccc(N(C)C)c23)c1 [Example 63, 1-(4-dimethylamino-benzo[d]isoxazol-3-yl)-3-(3,5-dimethylphenyl)-thiourea]	−56
CN(C)c1ccc(NC(=S)Nc2noc3cccc(OCC(F)(F)F)c23)cc1 [Example 92, 1-(4-dimethylaminophenyl)-3-[4-(2.2,2-trifluoroethoxy)-benzo[d]isoxazol-3-yl]-thiourea]	−51
COc1cccc(NC(=S)Nc2noc3cc(Cl)ccc23)c1 [Example 107]	−80
COc1ccc(NC(=S)Nc2noc3cc(Br)ccc23)cc1OC [Example 108, 1-(6-bromobenzo[d]isoxazol-3-yl)-3-(3.4-dimethoxyphenyl)-thiourea]	−53.5

Other lines, results leading:

FLIPR membrane potential fluorescence change (ΔF %, max minus min); negative values indicate KCNQ2/3 agonism [%]	Compound
−52	CN(C)c1cccc2onc(NC(=S)NCc3ccccc3)c12 [Example 64, 1-benzyl-3-(4-dimethylamino-benzo[d]isoxazol-3-yl)-thiourea]
−79	COCCCNC(=S)Nc1noc2cccc(N(C)C)c12 [Example 65, 1-(4-dimethylamino-benzo[d]isoxazol-3-yl)-3-(3-methoxypropyl)-thiourea]
−40	COc1ccc(NC(=S)Nc2noc3cccc(OCC(F)(F)F)c23)cc1 [Example 84, 1-(4-methoxyphenyl)-3-[4-(2,2,2-trifluoroethoxy)-benzo[d]isoxazol-3-yl]-thiourea]
−66.5	CCCCCCCCCNC(=S)Nc1noc2cccc(OCc3ccc(C)cc3)c12 [Example 87, 1-[4-(4-methylbenzyloxy)-benzo[d]isoxazol-3-yl]-3-nonyl-thiourea]
−41.5	Cc1ccc(COc2cccc3onc(NC(=S)NC4CCCCC4)c23)cc1 [Example 90, 1-cyclohexyl-3-[4-(4-methylbenzyloxy)-benzo[d]isoxazol-3-yl]-thiourea]
−45.5	C=CCNC(=S)Nc1noc2ccc(C)cc12 [Example 93, 1-allyl-3-(5-methylbenzo[d]isoxazol-3-yl)-thiourea]
−47	COC(=O)CNC(=S)Nc1noc2ccc(C)cc12 [Example 94, [3-(5-methylbenzo[d]isoxazol-3-yl)-thioureido]-acetic acid methyl ester]
−64	Cc1ccc2onc(NC(=S)Nc3ccccc3C(C)C)c2c1 [Example 95, 1-(2-isopropylphenyl)-3-(5-methyl-benzo[d]isoxazol-3-yl)-thiourea]
−57	Cc1ccc2onc(NC(=S)Nc3ccc(C(F)(F)F)cc3)c2c1 [Example 96, 1-(5-methylbenzo[d]isoxazol-3-yl)-3-(4-trifluoromethylphenyl)-thiourea]
−58.5	COC(=O)C(C)NC(=S)Nc1noc2ccc(F)cc12 (stereo not drawn) [Example 97, 2-[3-(5-fluorobenzo(d]isoxazol-3-yl)-thioureido]-propionic acid methyl ester]
−43.5	Fc1ccc2onc(NC(=S)NCC3CCCO3)c2c1 (stereo not drawn) [Example 98, 1-(5-fluorobenzo[d]isoxazol-3-yl)-3-(tetrahydrofuran-2-yl-methyl)-thiourea]
−42	CCc1ccccc1NC(=S)Nc1noc2ccc(Br)cc12 [Example 100, 1-(5-bromobenzo[d]isoxazol-3-yl)-3-(2-ethylphenyl)-thiourea]
−58	S=C(Nc1noc2cc(Cl)ccc12)NC1CCCC1 [Example 103, 1-(6-chlorobenzo[d]isoxazol-3-yl)-3-cyclopentyl-thiourea]
−59	COc1ccc(NC(=S)Nc2noc3cc(Cl)ccc23)cc1 [Example 106, 1-(6-chlorobenzo[d]isoxazol-3-yl)-3-(4-methoxyphenyl)-thiourea]
−55	Cc1cccc(Cl)c1NC(=S)Nc1noc2cc(F)ccc12 [Example 113, 1-(2-chloro-6-methylphenyl)-3-(6-fluorobenzo[d]isoxazol-3-yl)-thiourea]
−54	CC(C)c1cccc(C(C)C)c1NC(=S)Nc1noc2cc(F)ccc12 [Example 114, 1-(2,6-diisopropylphenyl)-3-(6-fluorobenzo[d]isoxazol-3-yl)-thiourea]
−55	C=CCNC(=S)Nc1noc2c(F)cccc12 [Example 123, 1-allyl-3-(7-fluorobenzo[d]-isoxazol-3-yl)-thiourea]
